“Also recorded” adds a separate entry of the source.
Legend:
[1] = system: 3-transmembrane (TM3) and 4-transmembrane (TM4) receptors; details: grouped by calculated molar solubility in unbuffered water at 25° C.; cited from earlier work
[2] = molecular target: T1, NMDA (NR1/NR2A) receptors (Rattus norvegicus, UniProt P35439+Q00959); assay: NMDA receptor two-electrode voltage clamp in oocytes at saturated drug concentration; format: cell-based; details: for NMDA % Direct Effect: drug response without receptor agonist; for NMDA % Direct Effect / NMDA % Agonist Effect: percent of control agonist peak, mean ±SEM, 5-6 oocytes, saturated drug; for NMDA % Agonist Effect: drug with glutamate and glycine; for NMDA Drug Response: drug+agonist versus control agonist peak
T1 construct: expressed in transfected cells; host or cells: Xenopus laevis oocytes (RNA injection, 1:1)
T1 sequence (Q00959 23-1464, other chains not shown): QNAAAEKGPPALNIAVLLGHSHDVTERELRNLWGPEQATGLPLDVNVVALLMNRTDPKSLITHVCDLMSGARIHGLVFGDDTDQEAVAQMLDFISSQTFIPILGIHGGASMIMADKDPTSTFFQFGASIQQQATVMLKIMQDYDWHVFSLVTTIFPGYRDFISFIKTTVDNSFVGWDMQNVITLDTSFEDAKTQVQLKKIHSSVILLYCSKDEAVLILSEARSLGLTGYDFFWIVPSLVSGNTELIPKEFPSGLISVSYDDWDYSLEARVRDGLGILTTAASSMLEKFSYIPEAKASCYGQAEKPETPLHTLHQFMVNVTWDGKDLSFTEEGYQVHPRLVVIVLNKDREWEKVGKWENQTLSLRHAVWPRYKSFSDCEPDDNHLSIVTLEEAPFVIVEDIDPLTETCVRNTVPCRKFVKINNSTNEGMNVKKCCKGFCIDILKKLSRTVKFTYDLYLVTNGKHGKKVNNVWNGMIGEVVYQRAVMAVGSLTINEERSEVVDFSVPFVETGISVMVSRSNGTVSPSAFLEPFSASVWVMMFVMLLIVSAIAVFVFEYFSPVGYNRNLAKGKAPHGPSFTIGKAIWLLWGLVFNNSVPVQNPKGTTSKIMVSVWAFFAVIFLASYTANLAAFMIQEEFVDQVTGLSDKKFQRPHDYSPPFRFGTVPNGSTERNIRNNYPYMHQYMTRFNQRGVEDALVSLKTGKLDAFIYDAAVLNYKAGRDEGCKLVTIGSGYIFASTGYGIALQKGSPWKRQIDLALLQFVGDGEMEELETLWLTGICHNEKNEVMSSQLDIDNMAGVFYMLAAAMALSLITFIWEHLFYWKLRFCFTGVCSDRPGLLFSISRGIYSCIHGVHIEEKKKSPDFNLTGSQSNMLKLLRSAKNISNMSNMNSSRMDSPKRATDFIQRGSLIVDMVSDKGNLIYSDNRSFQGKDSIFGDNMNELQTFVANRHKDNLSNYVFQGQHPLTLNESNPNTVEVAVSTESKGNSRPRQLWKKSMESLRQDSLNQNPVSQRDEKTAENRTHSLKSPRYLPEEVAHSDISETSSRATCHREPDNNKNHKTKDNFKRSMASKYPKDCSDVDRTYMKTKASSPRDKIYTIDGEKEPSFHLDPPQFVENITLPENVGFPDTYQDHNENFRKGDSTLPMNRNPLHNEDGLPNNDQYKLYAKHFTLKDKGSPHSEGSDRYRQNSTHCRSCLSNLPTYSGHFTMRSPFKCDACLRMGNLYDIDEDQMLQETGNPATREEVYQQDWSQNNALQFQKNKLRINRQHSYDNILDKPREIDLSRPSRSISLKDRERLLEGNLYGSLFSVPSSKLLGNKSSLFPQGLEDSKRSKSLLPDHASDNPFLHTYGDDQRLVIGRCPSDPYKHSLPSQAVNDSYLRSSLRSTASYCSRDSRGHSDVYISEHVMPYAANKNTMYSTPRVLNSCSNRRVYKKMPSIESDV
From the text: (§1) GABAA (α1β2γ2s) or NMDA (NR1/NR2A) receptors were expressed in oocytes and studied using standard two-electrode voltage clamp techniques. Hydrocarbons from 14 different organic functional groups were studied at saturated concentrations, and compounds within each group differed only by the carbon number at the ω-position or within a saturated ring. An effect on GABAA or NMDA receptors was defined as a 10% or greater reversible current change from baseline that was statistically different from zero.
(§2) An ovary from tricaine-anesthetized Xenopus laevis frogs was surgically removed using a protocol approved by the Institutional Animal Care and Use Committee at the University of California, Davis. Following manual disruption of the ovarian lobule septae, the ovary was incubated in 0.2% Type I collagenase (Worthington Biochemical, Lakewood, N.J.) to defolliculate oocytes which were washed and stored in fresh and filtered modified Barth's solution composed of 88 mM NaCl, 1 mM KCl, 2.4 mM NaHCO3, 20 mM HEPES, 0.82 mM MgSO4, 0.33 mM Ca(NO3)2, 0.41 mM CaCl2, 5 mM sodium pyruvate, gentamycin, penicillin, streptomycin, and corrected to pH=7.4. All salts and antibiotics were A.C.S. grade (Fisher Scientific, Pittsburgh, Pa.).
(§3) Clones used were provided as a gift from Dr. R. A. Harris (University of Texas, Austin) and were sequenced and compared to references in the National Center for Biotechnology Information database to confirm the identity of each gene. GABAA receptors were expressed using clones for the human GABAA α1 and the rat GABAA β2 and γ2s subunits in pCIS-II vectors. […] In separate oocytes, glutamate receptors were expressed using rat NMDA NR1 clones in a pCDNA3 vector and rat NMDA NR2A clones in a Bluescript vector. RNA encoding each subunit was prepared using a commercial transcription kit (T7 mMessage mMachine, Ambion, Austin, Tex.) was mixed in a 1:1 ratio, and 1-10 ng of total RNA was injected into oocytes and studied 1-2 days later.
Briefly, baseline perfusion solutions were the same as for GABAA with the substitution of equimolar BaCl2 for calcium salts and the addition of 0.1 mM EGTA; this constituted barium frog Ringer's solution (BaFR). Agonist solutions for NMDA studies also contained 0.1 mM glutamate (E) and 0.01 mM glycine (G) to constitute a BaFREG solution.
The syringe pump and perfusion chamber apparatus as well as the clamp holding potential and baseline-agonist exposure protocols were identical to that described for the GABAA studies. The same test compounds, concentrations, and preparative methods were used in NMDA voltage clamp studies as in the GABAA voltage clamp studies (Table 2).
(§4) Modulating drug responses were calculated as the percent of the control (baseline) peak as follows: 100·ID/IB, where ID and IB were the peak currents measured during agonist+drug and agonist baseline perfusions, respectively. When present, direct receptor activation by a drug was similarly calculated as a percent of the agonist response. […] A lack of receptor response (cut-off) was defined as a<10% change from baseline current that was statistically indistinguishable from zero using a two-tailed Student t-test.

[3] = molecular target: T2, GABAA (α1β2γ2s) receptors (UniProt P14867+P18508+P63138); assay: GABAA receptor two-electrode voltage clamp in oocytes at saturated drug concentration; format: cell-based, human α1, rat β2 and γ2s; details: for GABAA % Direct Effect: drug response without receptor agonist; for GABAA % Direct Effect / GABAA % Agonist Effect: percent of control agonist peak, mean ±SEM, 5-6 oocytes, saturated drug; for GABAA % Agonist Effect: drug with γ-aminobutyric acid; for GABAA Drug Response: drug+agonist versus control agonist peak
T2 construct: expressed in transfected cells; host or cells: Xenopus laevis oocytes (intranuclear plasmid injection, α1:β2:γ2 = 1:1:10)
T2 sequence (P14867 28-456): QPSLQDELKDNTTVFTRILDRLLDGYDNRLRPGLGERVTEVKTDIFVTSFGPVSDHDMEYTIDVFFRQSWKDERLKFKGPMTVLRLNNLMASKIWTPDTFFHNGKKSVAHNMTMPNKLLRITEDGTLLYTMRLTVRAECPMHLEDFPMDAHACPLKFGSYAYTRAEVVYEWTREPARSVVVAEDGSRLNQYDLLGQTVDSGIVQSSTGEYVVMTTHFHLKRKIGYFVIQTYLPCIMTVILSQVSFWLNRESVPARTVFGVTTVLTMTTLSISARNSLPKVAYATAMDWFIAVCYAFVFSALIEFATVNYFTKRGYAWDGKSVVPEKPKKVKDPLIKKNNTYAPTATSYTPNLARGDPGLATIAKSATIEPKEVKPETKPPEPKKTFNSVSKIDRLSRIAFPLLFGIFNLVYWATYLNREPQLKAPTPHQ
T2 sequence (P63138 25-474 limits assumed): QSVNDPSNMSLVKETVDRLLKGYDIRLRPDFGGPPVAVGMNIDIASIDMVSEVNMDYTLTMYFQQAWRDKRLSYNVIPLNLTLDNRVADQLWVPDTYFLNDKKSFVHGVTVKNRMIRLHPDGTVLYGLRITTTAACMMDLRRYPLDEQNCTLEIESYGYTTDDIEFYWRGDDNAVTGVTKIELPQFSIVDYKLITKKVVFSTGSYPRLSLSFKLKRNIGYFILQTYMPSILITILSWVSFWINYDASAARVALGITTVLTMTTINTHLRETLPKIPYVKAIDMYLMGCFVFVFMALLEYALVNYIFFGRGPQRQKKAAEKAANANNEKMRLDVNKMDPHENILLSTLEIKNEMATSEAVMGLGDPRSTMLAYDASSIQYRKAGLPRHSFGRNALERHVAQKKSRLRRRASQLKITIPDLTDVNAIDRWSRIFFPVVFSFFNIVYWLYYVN
T2 sequence (P18508 39-466): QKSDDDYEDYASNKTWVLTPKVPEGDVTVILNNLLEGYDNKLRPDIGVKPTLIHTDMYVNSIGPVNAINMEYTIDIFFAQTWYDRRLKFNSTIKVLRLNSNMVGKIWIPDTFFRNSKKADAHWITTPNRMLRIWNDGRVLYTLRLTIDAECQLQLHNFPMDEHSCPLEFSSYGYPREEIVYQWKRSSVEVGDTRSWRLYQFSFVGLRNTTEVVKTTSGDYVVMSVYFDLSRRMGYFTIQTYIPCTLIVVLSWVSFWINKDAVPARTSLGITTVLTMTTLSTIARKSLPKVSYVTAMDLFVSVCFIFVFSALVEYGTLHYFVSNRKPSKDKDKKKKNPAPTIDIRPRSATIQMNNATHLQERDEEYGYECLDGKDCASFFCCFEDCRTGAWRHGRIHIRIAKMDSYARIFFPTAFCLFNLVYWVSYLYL
From the text: as §1, §2, §3
Oocytes were studied in a 250 μL linear-flow perfusion chamber with solutions administered by syringe pump at 1.5 ml/min with gastight glass syringes and Teflon tubing. Oocyte GABAA currents were studied using standard two-electrode voltage clamping techniques at a holding potential of […] using a 250 μL channel linear-flow perfusion chamber with solutions administered by syringe pump at 1.5 mL/min.
After FR perfusion for 5 min, oocytes were exposed to 30 sec FR-GABA followed by another 5 min FR washout; this was repeated until stable GABAA-elicited peaks were obtained. Next, FR containing a saturated solution of the study drug (Table 2)—or for gaseous study compounds a vapor pressure equal to 90% of barometric pressure with balance oxygen—was used to perfuse the oocyte chamber for 2 min followed by perfusion with a FR-GABA solution containing the identical drug concentration for 30 sec.
as §4

[4] = saturating aqueous concentration

Row | Structure (SMILES) | ion channel modulation, TM3 versus TM4 receptors (FIG. 2) [1] | NMDA % Direct Effect [2] | NMDA % Agonist Effect [2] | GABAA % Direct Effect [3] | GABAA % Agonist Effect [3] | GABAA Drug Response [3] | NMDA Drug Response [2] | NMDA receptor modulation (in words) [2, 4] | GABAA receptor modulation (in words) [3, 4]
1 | FC1(F)C(F)(F)C(F)(Cl)C1(F)Cl (stereo not drawn) [1,2-dichlorohexafluorocyclobutane] | modulate 4-transmembrane receptors (TM4) or neither receptor type |  |  |  |  |  |  |  | 
2 | C1CCCC1 [cyclopentane] |  | none | 83 ± 2% | 3 ± 2% | 196 ± 11% | + (potentiation (+) for drug+agonist responses greater than the control agonist peak) |  |  | 
3 | C1CC1 [cyclopropane] | modulate both 3-transmembrane (TM3) and TM4 receptors |  |  |  |  |  |  |  | 
4 | CCCCCCCCCC=O [decanal] |  | none | 97 ± 3% | none | 159 ± 5% | + (potentiation (+) for drug+agonist responses greater than the control agonist peak) | 0 (no response (0) for drug+agonist responses that differ by <10% from the control agonist peak) |  | 
5 | FC(F)OC(F)C(F)(F)F (stereo not drawn) [desflurane] | modulate both 3-transmembrane (TM3) and TM4 receptors |  |  |  |  |  |  |  | 
6 | CN1C(=O)CN=C(c2ccccc2)c2cc(Cl)ccc21 [diazepam] | modulate 4-transmembrane receptors (TM4) or neither receptor type |  |  |  |  |  |  |  | 
7 | CCCCCCOCCCCCC [dihexylether] |  | none | 112 ± 4% | none | 113 ± 1% | + (potentiation (+) for drug+agonist responses greater than the control agonist peak) | 0 (no response (0) for drug+agonist responses that differ by <10% from the control agonist peak) |  | 
8 | CCCCCOCCCCC [dipentylether] |  | none | 97 ± 2% | none | 211 ± 9% | + (potentiation (+) for drug+agonist responses greater than the control agonist peak) | 0 (no response (0) for drug+agonist responses that differ by <10% from the control agonist peak) |  | 
9 | C[C@]12N[C@H](Cc3ccccc31)c1ccccc12 [dizocilpine] | modulate both 3-transmembrane (TM3) and TM4 receptors |  |  |  |  |  |  |  | 
10 | FC(F)OC(F)(F)C(F)Cl (stereo not drawn) [enflurane] | modulate both 3-transmembrane (TM3) and TM4 receptors |  |  |  |  |  |  |  | 
11 | CCO [ethanol] | modulate both 3-transmembrane (TM3) and TM4 receptors |  |  |  |  |  |  |  | 
12 | CCCCCCCCCC(=O)OCC [ethyl decanoate] |  | none | 98 ± 1% | none | 137 ± 2% | + (potentiation (+) for drug+agonist responses greater than the control agonist peak) | 0 (no response (0) for drug+agonist responses that differ by <10% from the control agonist peak) |  | 
13 | CCCCCCC(=O)OCC [ethyl heptanoate] |  | none | 78 ± 3% | none | 370 ± 34% | + (potentiation (+) for drug+agonist responses greater than the control agonist peak) |  |  | 
14 | CCCCCCCC(=O)OCC [ethyl octanoate] |  | none | 90 ± 1% | none | 285 ± 18% | + (potentiation (+) for drug+agonist responses greater than the control agonist peak) |  |  | 
15 | CCCCCC [hexane] |  | none | 100 ± 1% | none | 129 ± 5% | + (potentiation (+) for drug+agonist responses greater than the control agonist peak) | 0 (no response (0) for drug+agonist responses that differ by <10% from the control agonist peak) |  | 
16 | Cc1ncc2n1-c1ccc(Cl)cc1C(c1ccccc1F)=NC2 [midazolam] | modulate 4-transmembrane receptors (TM4) or neither receptor type |  |  |  |  |  |  |  | 
17 | [N-]=[N+]=O [nitrous oxide] | modulate both 3-transmembrane (TM3) and TM4 receptors |  |  |  |  |  |  |  | 
18 | CCCCCCCCC=O [nonanal] |  | none | 104 ± 2% | none | 219 ± 29% | + (potentiation (+) for drug+agonist responses greater than the control agonist peak) | 0 (no response (0) for drug+agonist responses that differ by <10% from the control agonist peak) |  | 
19 | CCCCCCCCC [nonane] | modulate 4-transmembrane receptors (TM4) or neither receptor type |  |  |  |  |  |  |  | 
20 | CCCCCCCC=O [octanal] |  | none | 71 ± 3% | 6 ± 3% | 357 ± 20% | + (potentiation (+) for drug+agonist responses greater than the control agonist peak) |  |  | 
21 | CCCCC [pentane] |  | none | 94 ± 3% | none | 321 ± 10% | + (potentiation (+) for drug+agonist responses greater than the control agonist peak) | 0 (no response (0) for drug+agonist responses that differ by <10% from the control agonist peak) | does not modulate NMDA receptors; also recorded: no effect | positively modulate
22 | FCOC(C(F)(F)F)C(F)(F)F [sevoflurane] | modulate both 3-transmembrane (TM3) and TM4 receptors |  |  |  |  |  |  |  | 
23 | CCCCCCCCCCC=O [undecanal] |  | none | 97 ± 8% | none | 299 ± 29% | + (potentiation (+) for drug+agonist responses greater than the control agonist peak) | 0 (no response (0) for drug+agonist responses that differ by <10% from the control agonist peak) |  | 

— patent US10010525B2, “Methods of inducing anesthesia” (The Regents of the University of California, priority 2012, dated 2018)
